PubChem BioAssay AID624129 (Sanford-Burnham Center for Chemical Genomics, 2012)
Activity calls are given as the source filed them. The rule behind the calls is not given here.

Tests used:
Assay in all cases: potency against CXCR6 with APJ panel – cell-based, beta-arrestin, DiscoveRx, uHTS hits, dose response (AID 624129)
[1] = molecular target: Apelin receptor (Homo sapiens) (UniProt P35414); details: CXCR6 beta-arrestin (DiscoveRx) antagonist cell assay, APJ
[2] = molecular target: Beta-galactosidase (Escherichia coli) (UniProt Q8VNN2); details: CXCR6 beta-arrestin (DiscoveRx) antagonist cell assay, b-galactosidase
[3] = molecular target: C-C chemokine receptor type 6 (Homo sapiens) (UniProt P51684); details: CXCR6 beta-arrestin (DiscoveRx) antagonist cell assay
[4] = molecular target: C-X-C chemokine receptor type 6 (Homo sapiens) (UniProt O00574); details: CXCR6 beta-arrestin (DiscoveRx) antagonist cell assay; for inhibition: CXCR6, run 1, dose range 2, at 80 µM (top of the series)
[5] = dose range 1, mean IC50 across replicates
[6] = CCR6, dose range 1, mean IC50 across replicates
[7] = CXCR6, dose range 1, mean IC50 across replicates

Chain of C-X-C chemokine receptor type 6 (Homo sapiens) (O00574 whole entry, looked up): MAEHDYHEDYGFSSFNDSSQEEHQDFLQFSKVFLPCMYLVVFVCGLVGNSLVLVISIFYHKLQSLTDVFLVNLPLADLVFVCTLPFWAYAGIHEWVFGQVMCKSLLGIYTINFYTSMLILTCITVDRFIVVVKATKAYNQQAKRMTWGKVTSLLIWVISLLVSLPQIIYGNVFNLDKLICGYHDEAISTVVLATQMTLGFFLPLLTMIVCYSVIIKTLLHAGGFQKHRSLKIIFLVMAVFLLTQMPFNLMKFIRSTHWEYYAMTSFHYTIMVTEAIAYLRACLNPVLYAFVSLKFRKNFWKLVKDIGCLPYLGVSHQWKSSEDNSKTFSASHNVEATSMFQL
Chain of Beta-galactosidase (Escherichia coli) (Q8VNN2 whole entry, looked up): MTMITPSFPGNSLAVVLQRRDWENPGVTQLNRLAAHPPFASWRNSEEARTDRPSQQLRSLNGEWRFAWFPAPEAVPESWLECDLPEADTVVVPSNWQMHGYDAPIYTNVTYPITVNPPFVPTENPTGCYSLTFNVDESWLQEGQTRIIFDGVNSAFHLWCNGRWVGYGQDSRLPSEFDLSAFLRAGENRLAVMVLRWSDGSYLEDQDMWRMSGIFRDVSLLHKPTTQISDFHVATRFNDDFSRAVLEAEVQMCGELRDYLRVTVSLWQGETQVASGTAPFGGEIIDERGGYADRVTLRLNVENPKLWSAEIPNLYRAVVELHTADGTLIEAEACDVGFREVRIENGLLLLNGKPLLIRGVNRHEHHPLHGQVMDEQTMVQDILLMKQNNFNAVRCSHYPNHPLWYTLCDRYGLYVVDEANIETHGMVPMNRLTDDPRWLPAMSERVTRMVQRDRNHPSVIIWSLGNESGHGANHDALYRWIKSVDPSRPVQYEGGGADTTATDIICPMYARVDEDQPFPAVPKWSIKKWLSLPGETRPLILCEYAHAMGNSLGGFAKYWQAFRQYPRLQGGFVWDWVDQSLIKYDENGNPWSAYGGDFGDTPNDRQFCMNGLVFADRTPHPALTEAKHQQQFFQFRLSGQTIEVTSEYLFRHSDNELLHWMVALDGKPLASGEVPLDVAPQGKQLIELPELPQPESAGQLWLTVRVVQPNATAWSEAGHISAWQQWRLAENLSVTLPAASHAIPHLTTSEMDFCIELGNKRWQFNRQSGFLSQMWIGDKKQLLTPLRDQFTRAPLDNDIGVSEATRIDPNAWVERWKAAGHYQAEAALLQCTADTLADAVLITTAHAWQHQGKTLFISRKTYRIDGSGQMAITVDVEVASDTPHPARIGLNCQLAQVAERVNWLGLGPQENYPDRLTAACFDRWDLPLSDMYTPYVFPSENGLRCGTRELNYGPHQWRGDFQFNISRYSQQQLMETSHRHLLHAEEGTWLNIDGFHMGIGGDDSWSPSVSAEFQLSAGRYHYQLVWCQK

Structure (SMILES) | IC50 [1, 5] | IC50 ([1]; run 2, dose range 1) | IC50 ([1]; run 3, dose range 1) | IC50 ([2]; dose range 1) | IC50 [2, 5] | IC50 [3, 6] | IC50 ([3]; CCR6, run 2, dose range 1) | IC50 ([4]; CXCR6, dose range 1) | IC50 [4, 7] | inhibition [4] | IC50 ([4]; CXCR6, run 2, dose range 1) | IC50 ([1]; dose range 1) | IC50 ([3]; CCR6, dose range 1) | IC50 ([4]; CXCR6, run 1, dose range 2) | IC50 ([4]; CXCR6, run 2, dose range 2)
Cc1cc(C)c2ccc(N)nc2c1O | > 80 µM | > 80 µM | > 80 µM | > 80 µM (inactive) | > 80 µM | > 80 µM | > 80 µM | > 80 µM (inactive) | > 80 µM | -25.6% | > 80 µM | – | – | – | –
O=C(CN1CCN(S(=O)(=O)c2ccc(Br)cc2)CC1)Nc1ccc2c(c1)OCO2 | 24.8 µM | 27.8 µM | > 80 µM | > 80 µM (inactive) | > 80 µM | 20.6 µM | 20.6 µM | inactive | 20.7 µM | 100% | 19.2 µM | 21.8 µM | 20.7 µM | – | –
COc1ccc(C(=O)N/N=C(\C)c2ccccn2)cc1OC | 2.39 µM | 2.48 µM | 2.86 µM | > 80 µM (inactive) | > 80 µM | 2.38 µM | 2.71 µM | 2.56 µM | 1.99 µM | – | 2.6 µM | 1.82 µM | 2.06 µM | 1.65 µM | 1.14 µM
O=C(Nc1nnc(SCc2ccc(F)cc2)s1)c1ccccn1 | 3.6 µM | 3.87 µM | 3.84 µM | > 80 µM (inactive) | > 80 µM | 4.53 µM | 4.78 µM | – | 4.08 µM | – | 3.49 µM | 3.1 µM | 4.29 µM | 5.5 µM | 3.25 µM
CC(=O)OCCCNc1cc(Sc2ccc(C)cc2)c2nonc2c1[N+](=O)[O-] | > 80 µM | > 80 µM | > 80 µM | > 80 µM (inactive) | > 80 µM | > 80 µM | > 80 µM | > 80 µM (inactive) | > 80 µM | -24.2% | > 80 µM | – | – | – | –
O=C(C#Cc1ccccc1)c1ccco1 | 14 µM | 13.1 µM | 12.8 µM | > 80 µM (inactive) | > 80 µM | 9.89 µM | 10.3 µM | 11.8 µM | 9.68 µM | – | 9.18 µM | 16.1 µM | 9.49 µM | 9.59 µM | 8.16 µM
S=C(NCCCN1CCOCC1)Nc1ccc(Cl)cc1 | 14.5 µM | 16 µM | 13.7 µM | 26.5 µM | 26.5 µM | 9.33 µM | 11 µM | inactive | 12.9 µM | 118% | 11 µM | 13.7 µM | 7.62 µM | – | –
N#CC(C#N)=C1C=CC=CN1/C(=C\c1ccco1)C(=O)c1ccccc1 | 3.9 µM | 3.2 µM | 3.71 µM | > 80 µM (inactive) | > 80 µM | 2.95 µM | 2.99 µM | 3.57 µM | 3.74 µM | – | 3.64 µM | 4.79 µM | 2.91 µM | 3.95 µM | 3.79 µM
CNC(=O)c1nnsc1S(=O)(=O)c1ccc(Cl)cc1 | 15.7 µM | 16.1 µM | 16.5 µM | > 80 µM (inactive) | > 80 µM | 12 µM | 13.5 µM | inactive | 12.1 µM | 116% | 10.7 µM | 14.3 µM | 10.5 µM | – | –
O=C(Nc1nnc(-c2cccs2)o1)c1cccc(C(F)(F)F)c1 | > 80 µM | > 80 µM | > 80 µM | > 80 µM (inactive) | > 80 µM | > 80 µM | > 80 µM | > 80 µM (inactive) | > 80 µM | -55.9% | > 80 µM | – | – | – | –
C/C(=N\NC(=O)c1ccc(F)cc1)c1ccccn1 | 1.01 µM | 1.4 µM | 0.79 µM | > 80 µM (inactive) | > 80 µM | 1.19 µM | 1.4 µM | 1.55 µM | 1.14 µM | – | 1.37 µM | 0.853 µM | 0.987 µM | 0.861 µM | 0.779 µM
C=C1C(=O)C23CCC4C(C)(C(=O)OC)CCCC4(C)C2CCC1(O)C3 (stereo not given) | 8.26 µM | 7.57 µM | 7.54 µM | > 80 µM (inactive) | > 80 µM | 5.45 µM | 5.72 µM | 5.72 µM | 6.19 µM | – | 5.95 µM | 9.66 µM | 5.19 µM | 6.35 µM | 6.77 µM
COc1cc(C(=O)NC2CC3CCCC(C2)N3CC(=O)Nc2ccccc2)cc(OC)c1OC (stereo not given) | > 80 µM | > 80 µM | > 80 µM | > 80 µM (inactive) | > 80 µM | > 80 µM | > 80 µM | 13.5 µM | 10.7 µM | – | 10.7 µM | > 80 µM (inactive) | > 80 µM (inactive) | 12.3 µM | 6.07 µM
CC(=O)OCCCNc1cc(Sc2ccc(Cl)cc2)c2nonc2c1[N+](=O)[O-] | 4.65 µM | 4.27 µM | 4.6 µM | 39.8 µM | 39.8 µM | 2.12 µM | 2.27 µM | 3.22 µM | 3.05 µM | 145% | 2.88 µM | 5.08 µM | 1.97 µM | – | –
COc1cc2c(cc1OC)C1(CCCC1)CNC2c1cccc([N+](=O)[O-])c1 (stereo not given) | 21.9 µM | 21 µM | 24.6 µM | > 80 µM (inactive) | > 80 µM | 12.4 µM | 13 µM | inactive | 14.1 µM | 126% | 12 µM | 19.9 µM | 11.9 µM | – | –
Cc1cccc(C(=O)Nc2ccc(C(=O)/C=C/c3cccnc3)cc2)c1 | 9.66 µM | 9.81 µM | 10.4 µM | > 80 µM (inactive) | > 80 µM | 5.73 µM | 6.11 µM | 13.9 µM | 8.81 µM | – | 7.01 µM | 8.75 µM | 5.35 µM | 6.87 µM | 7.46 µM
O=C1C(=C(c2ccccc2)N2CCOCC2)Cc2ccccc21 | 13.2 µM | 11.8 µM | 12.5 µM | > 80 µM (inactive) | > 80 µM | 8.89 µM | 8.87 µM | 8.74 µM | 9.51 µM | – | 10.3 µM | 15.3 µM | 8.91 µM | 9.93 µM | 9.08 µM
C=C1C(=O)O[C@@H]2C[C@@H](C)[C@@H]3C=CC(=O)[C@@]3(C)[C@@H](OC(=O)CC(=O)O[C@H]3[C@@H]4C(=C)C(=O)O[C@@H]4C[C@@H](C)[C@@H]4C=CC(=O)[C@]43C)[C@H]12 | 4.97 µM | 5.28 µM | 5.02 µM | > 80 µM (inactive) | > 80 µM | 3.35 µM | 3.59 µM | 4.65 µM | 3.94 µM | – | 4.03 µM | 4.62 µM | 3.11 µM | 3.8 µM | 3.28 µM
O=[N+]([O-])c1ccc(Sc2cccc[n+]2[O-])c2nonc12 | 19.7 µM | 17.5 µM | 20.1 µM | > 80 µM (inactive) | > 80 µM | 11.5 µM | 11.6 µM | > 80 µM (inactive) | > 80 µM | 118% | > 80 µM | 21.5 µM | 11.5 µM | – | –
O=[N+]([O-])c1c(Nc2ccccc2O)cc(Cl)c2nonc12 | 23.2 µM | 24.4 µM | 25.2 µM | > 80 µM (inactive) | > 80 µM | 12.6 µM | 13.4 µM | inactive | 13 µM | 123% | 9.03 µM | 20 µM | 11.8 µM | – | –
CC(Oc1ccc(F)cc1)C(=O)Nc1nc(-c2ccccn2)cs1 (stereo not given) | 9.34 µM | 8.14 µM | 10.6 µM | > 80 µM (inactive) | > 80 µM | 8.7 µM | 9.57 µM | 8.77 µM | 7.74 µM | – | 8.41 µM | 9.28 µM | 7.82 µM | 5.99 µM | 7.81 µM
COC(=O)C1=C(c2ccc(-c3ccccc3)c(F)c2)C[C@@H]2CC[C@H]1N2C(=O)N1CCC(C)CC1 | 10.9 µM | 13.8 µM | 10.3 µM | > 80 µM (inactive) | > 80 µM | 8.25 µM | 11.6 µM | inactive | 11.2 µM | 88% | 10.8 µM | 8.49 µM | 4.9 µM | – | –
